Laboratory results: BindingDB's records for doi:10.1016/s0969-2126(98)00113-0 (University of Texas At Dallas, 1998)

What was measured:
[1] = biological target: Mitogen-activated protein kinase 1 (Rattus norvegicus, UniProt P63086); assay: Kinase Inhibition Assay; details: pH 7.5; 37 °C
[2] = biological target: Mitogen-activated protein kinase 14 (Homo sapiens, UniProt Q16539); assay: Kinase Inhibition Assay; details: pH 7.5; 37 °C
Chain of Mitogen-activated protein kinase 14 (Q16539 whole entry): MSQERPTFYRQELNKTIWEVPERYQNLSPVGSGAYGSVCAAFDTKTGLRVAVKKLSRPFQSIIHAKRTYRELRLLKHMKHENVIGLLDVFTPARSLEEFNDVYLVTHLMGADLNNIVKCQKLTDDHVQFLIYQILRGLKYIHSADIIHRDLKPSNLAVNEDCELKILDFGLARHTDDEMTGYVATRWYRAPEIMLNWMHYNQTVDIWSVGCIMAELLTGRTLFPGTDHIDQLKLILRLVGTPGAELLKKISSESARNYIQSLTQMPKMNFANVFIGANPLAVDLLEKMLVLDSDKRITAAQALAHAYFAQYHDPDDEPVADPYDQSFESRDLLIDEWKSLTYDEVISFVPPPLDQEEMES

Chain of Mitogen-activated protein kinase 1 (P63086 whole entry): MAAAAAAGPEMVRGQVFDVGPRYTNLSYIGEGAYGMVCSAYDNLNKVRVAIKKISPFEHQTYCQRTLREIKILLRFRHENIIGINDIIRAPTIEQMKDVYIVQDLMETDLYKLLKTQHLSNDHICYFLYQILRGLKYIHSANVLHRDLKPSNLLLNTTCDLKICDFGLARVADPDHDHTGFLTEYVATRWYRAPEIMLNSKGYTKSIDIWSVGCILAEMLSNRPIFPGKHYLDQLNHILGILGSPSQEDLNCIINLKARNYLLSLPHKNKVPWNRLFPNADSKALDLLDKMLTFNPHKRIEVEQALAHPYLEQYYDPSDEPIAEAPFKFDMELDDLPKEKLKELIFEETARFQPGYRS

Structure (SMILES)	IC50 [1] [µM]	IC50 [2] [µM]
Cn1cnc2c(NCc3ccccc3)nc(NCCO)nc21 [2,6,9-Trisubstituted purine deriv. 26]	27	> 100
C[S+]([O-])c1ccc(-c2nc(-c3ccncc3)c(-c3ccc(F)cc3)[nH]2)cc1 (stereo not drawn) [4-{4-(4-fluorophenyl)-2-[4-(methylsulfinyl)phenyl]-1H-imidazol-5-yl}pyridine]	> 1000	
